Structures can show the parent of a compound that is named as a salt.
Columns and labels:
Format in all cases: biochemical
deoxyribose [1] = experiment: TBARS assay, chelants 0.07-0.11 mM during ultrasound exposure, ferrous iron (Example 3); settings: 0.025 mM ferrous iron, 0.07-0.11 mM chelant, 0.01% hydrogen peroxide, pH 7.5, 30 W 2 MHz 10 min
Procedure: (§1) The following example uses the thiobarbituric acid-reactive substances (TBARS) assay to identify chelants that enhance radical production during ultrasound exposure. All solutions were prepared in pH 7.5 phosphate buffer containing approximately 2 mM deoxyribose, 0.01% hydrogen peroxide, 0.025 mM ferrous iron, and 0.07-0.11 mM chelant. Solutions were sonicated at 30 W, 2 MHz, 32-34 degrees Celsius for ten minutes using a PZT-8 1.8 cm diameter custom transducer. The sonicated solution was placed on an orbit shaker rotating at 25 RPM to ensure even sonication of the solution while the transducer was held stationary. Control solutions were placed in a controlled temperature bath at 32-34 degrees Celsius without sonication. After 10 minutes of treatment, 1 mL test solution was placed in a test tube followed by 2 mL of 1% 2-thiobarbituric acid and 2 mL of 2.8% trichloroacetic acid. The test tube was sealed and heated to 90 degrees Celsius for 30 minutes and allowed to cool to room temperature for 20 minutes. The absorbance at 532 nm was measured. The enhanced radical production during ultrasound exposure was determined by comparing the amount of deoxyribose degradation that occurs in the sonicated solution versus the control solution using the following equation: [formula]

ferritin = experiment: Release of iron from ferritin assay, naphthoquinones, ultrasound (Example 8); settings: iron release vs ultrasound without additive, 0.2 mg/mL ferritin, pH 7, 15 min
Procedure: The following example uses the release of iron from ferritin assay to show the effect of naphthoquinones on the release of iron from ferritin during ultrasound exposure. All solutions were prepared in pH 7 acetic acid solution containing approximately 0.2 mg/mL ferritin and 1 mM ferrozine, and the concentration of naphthoquinone indicated in the table below. Solutions were sonicated at 30 W, 2 MHz, 32-34 degrees Celsius for fifteen minutes using a PZT-8 1.8 cm diameter custom transducer. The sonicated solution was placed on an orbit shaker rotating at 25 RPM to ensure even sonication of the solution while the transducer was held stationary. Control solutions were placed in a controlled temperature bath at 32-34 degrees Celsius without sonication. After 15 minutes of treatment, an aliquot was tested for the presence of the iron-ferrozine chelate via absorbance at 562 nm. The amount of iron released was determined using the control solution corrected absorbance (subtract the absorbance of the control solution from the absorbance of the ultrasound solution). The corrected absorbance was compared to a ferrozine-iron standard curve to determine the amount of iron released. The enhanced iron release due to ultrasound exposure in the presence of the naphthoquinone was compared to the amount of enhanced iron release due to ultrasound exposure in the absence of any additives as follows: [formula]

deoxyribose [2] = experiment: TBARS assay, chelants 0.07-0.11 mM during ultrasound exposure, ferric iron (Example 4); settings: 0.02-0.03 mM ferric iron, 0.07-0.11 mM chelant, 0.01% hydrogen peroxide, pH 7.5, 30 W 2 MHz 10 min
Procedure: as §1, with “0.02-0.03” for “0.025”, “ferric” for “ferrous”

[3] = Free radical production when exposed to ultrasound and a metal (statements in the description); settings: for free radical production: when exposed to ultrasound and a metal
deoxyribose [4] = experiment: TBARS assay, anti tumor antibiotics, ultrasound (Example 12); settings: 0.005 mM ferrous iron, 0.005 mM ferric iron, 15 min
Procedure: The following example uses the thiobarbituric acid-reactive substances (TBARS) assay to identify anti tumor antibiotics that enhance radical production during ultrasound. All solutions are prepared in pH 7.5 phosphate buffer containing approximately 2 mM deoxyribose, 0.01% hydrogen peroxide, 0.005 mM ferrous iron, 0.005 mM ferric iron, and the additives indicated in the table below. Solutions are sonicated at 30 W, 2 MHz, 32-34 degrees Celsius for fifteen minutes using a PZT-8 1.8 cm diameter custom transducer. The sonicated solution is placed on an orbit shaker rotating at 25 RPM to ensure even sonication of the solution while the transducer is held stationary. Control solutions are placed in a controlled temperature bath at 32-34 degrees Celsius without sonication. After 15 minutes of treatment, 1 mL test solution was placed in a test tube followed by 2 mL of 1% 2-thiobarbituric acid and 2 mL of 2.8% trichloroacetic acid. The test tube is sealed and heated to 90 degrees Celsius for 30 minutes and allowed to cool to room temperature for 20 minutes. The absorbance at 532 nm is measured. The enhanced radical production during ultrasound exposure is determined by comparing the amount of deoxyribose degradation that occurs in the sonicated solution versus the control solution using the following equation: [formula]

deoxyribose [5] = experiment: TBARS assay, chelants during ultrasound exposure, ferrous iron (Example 1); settings: 0.025 mM ferrous iron, 0.03-0.04 mM chelant, 0.01% hydrogen peroxide, pH 7.5, 30 W 2 MHz 10 min
Procedure: as §1, with “and 0.03-0.04” for “and 0.07-0.11”, “exposure is” for “exposure was”

deoxyribose [6] = experiment: TBARS assay, chelants during ultrasound exposure, ferric iron (Example 2); settings: 0.02-0.03 mM ferric iron, 0.04-0.05 mM chelant, 0.01% hydrogen peroxide, pH 7.5, 30 W 2 MHz 10 min
Procedure: as §1, with “0.02-0.03” for “0.025”, “ferric” for “ferrous”, “0.04-0.05” for “0.07-0.11”

c1cnc2c(c1)ccc1cccnc12 [1,10 Phenanthroline]
% Ultrasound Mediated Activity vs Control (deoxyribose [1]): 33%

CC(C)=CCC1=C(O)C(=O)c2ccccc2C1=O [2-hydroxy-3-(3-methyl-2-butenyl)-1,4-naphthoquinone]
% Ultrasound Mediated Activity (ferritin; 15 uM additive): 72%

CC1=CC(=O)c2ccccc2C1=O [2-methyl-1,4-naphthoquinone (menadione), 2-methyl-1,4-naphthoquinone]
% Ultrasound Mediated Activity (ferritin; 18 uM additive): 5.3%

O=S(=O)(O)c1ccc(-c2nnc(-c3ccccn3)nc2-c2ccc(S(=O)(=O)O)o2)o1 [3-(2-Pyridyl)-5,6-bis(5-sulfo-2-furyl)-1,2,4-triazine]
% Ultrasound Mediated Activity vs Control (deoxyribose [1]): 50% | % Ultrasound Mediated Activity vs Control (deoxyribose [2]): 207%

O=S(=O)(O)c1ccc(-c2nnc(-c3ccccn3)nc2-c2ccc(S(=O)(=O)O)cc2)cc1 [3-(2-Pyridyl)-5,6-diphenyl-1,2,4-triazine-4,4-disulfonic acid]
% Ultrasound Mediated Activity vs Control (deoxyribose [1]): 45% | % Ultrasound Mediated Activity vs Control (deoxyribose [2]): 136%

Nc1ncnc2c1ncn2[C@@H]1O[C@H](COP(=O)(O)OP(=O)(O)O)[C@@H](O)[C@H]1O [Adenosine diphosphate (ADP), Adenosine diphosphate]
% Ultrasound Mediated Activity vs Control (deoxyribose [1]): 26% | % Ultrasound Mediated Activity vs Control (deoxyribose [2]): 280% | free radical production [3]: increase free radical production

Cc1c(C(=O)O)c(O)cc2c1C(=O)c1c(O)c([C@@H]3O[C@H](CO)[C@@H](O)[C@H](O)[C@H]3O)c(O)c(O)c1C2=O [Carminic acid]
% Ultrasound Mediated Activity vs Control (deoxyribose [4]; 0.025 mM additive): >100%

COC1C(O)CC(OC2CC(Oc3cc4cc5c(c(O)c4c(O)c3C)C(=O)[C@@H](OC3CC(OC4CC(OC6CC(C)(O)C(OC(C)=O)C(C)O6)C(O)C(C)O4)C(O)C(C)O3)[C@H]([C@H](OC)C(=O)[C@@H](O)[C@@H](C)O)C5)OC(C)C2OC(C)=O)OC1C (some centres unmarked) [Chromomycin]
% Ultrasound Mediated Activity vs Control (deoxyribose [4]; 0.025 mM additive): >100%

O=C(O)CC(O)(CC(=O)O)C(=O)O [Citrate]
% Ultrasound Mediated Activity vs Control (deoxyribose [1]): 31% | % Ultrasound Mediated Activity vs Control (deoxyribose [2]): 161% | free radical production [3]: increase free radical production

COc1cccc2c1C(=O)c1c(O)c3c(c(O)c1C2=O)C[C@@](O)(C(C)=O)C[C@@H]3O[C@H]1C[C@H](N)[C@H](O)[C@H](C)O1 [Daunomycin]
% Ultrasound Mediated Activity vs Control (deoxyribose [4]; 0.1 mM additive): >100%

CC(=O)N(O)CCCCCNC(=O)CCC(=O)N(O)CCCCCNC(=O)CCC(=O)N(O)CCCCCN [Desferrioxamine mesylate]
% Ultrasound Mediated Activity vs Control (deoxyribose [5]): 92% | % Ultrasound Mediated Activity vs Control (deoxyribose [6]): 81%

O=C(O)CN(CC(=O)O)C1CCCCC1N(CC(=O)O)CC(=O)O (centres unmarked) [Diaminocyclohexane-N,N,N′,N′-tetraacetic acid]
% Ultrasound Mediated Activity vs Control (deoxyribose [5]): 61% | % Ultrasound Mediated Activity vs Control (deoxyribose [6]): 446%

O=C(O)CN(CCN(CC(=O)O)CC(=O)O)CCN(CC(=O)O)CC(=O)O [Diethylenetriaminepentaacetic acid]
% Ultrasound Mediated Activity vs Control (deoxyribose [6]): 177%

COc1cccc2c1C(=O)c1c(O)c3c(c(O)c1C2=O)C[C@@](O)(C(=O)CO)C[C@@H]3O[C@H]1C[C@H](N)[C@@H](O)[C@H](C)O1 [Epirubicin]
% Ultrasound Mediated Activity vs Control (deoxyribose [4]; 0.1 mM additive): >100%

O=C(O)CN(CCOCCOCCN(CC(=O)O)CC(=O)O)CC(=O)O [Ethylene glycol-bis(2-aminoethyl)-N,N,N′,N′-tetraacetic acid]
% Ultrasound Mediated Activity vs Control (deoxyribose [5]): 29% | % Ultrasound Mediated Activity vs Control (deoxyribose [6]): 520%

CO[C@@]12[C@H](COC(N)=O)C3=C(C(=O)C(C)=C(N)C3=O)N1C[C@@H]1N[C@@H]12 [Mitomycin C]
% Ultrasound Mediated Activity vs Control (deoxyribose [4]; 0.025 mM additive): >100%

O=C(O)CN(CCO)CCN(CC(=O)O)CC(=O)O [N-(2-Hydroxyethyl)ethylenediamine-N,N′,N′-triacetic acid]
% Ultrasound Mediated Activity vs Control (deoxyribose [5]): 34% | % Ultrasound Mediated Activity vs Control (deoxyribose [6]): 224%

O=C(O)CN(CC(=O)O)CC(=O)O [Nitriloacetic acid]
% Ultrasound Mediated Activity vs Control (deoxyribose [5]): 69% | % Ultrasound Mediated Activity vs Control (deoxyribose [6]): 238%

O=C(O)c1ccccn1 [Picolinic Acid]
% Ultrasound Mediated Activity vs Control (deoxyribose [1]): 53% | % Ultrasound Mediated Activity vs Control (deoxyribose [2]): 175%

COC1=C(N)C(=O)c2nc(-c3nc(C(=O)O)c(C)c(-c4ccc(OC)c(OC)c4O)c3N)ccc2C1=O [Streptonigrin]
% Ultrasound Mediated Activity vs Control (deoxyribose [4]; 0.025 mM additive): >100%

O=C(O)P(=O)(O)O [phosphonoformic acid]
radical production ([3]; added to an iron/EDTA system, ultrasound): radical production was increased

O=S([O-])[O-].[Na+].[Na+] [sodium sulfite]
free radical production [3]: increase free radical production

Olivomycin
% Ultrasound Mediated Activity vs Control (deoxyribose [4]; 0.025 mM additive): >100%
